The source made the active and inactive calls.
Assays:
[1] = molecular target: T1, Mucolipin-3 (Homo sapiens, UniProt Q8TDD5); experiment: Dose response cell-based high-throughput screening assay for agonists of the transient receptor potential channel ML3 (TRPML3). [Related pubchem assays: 1526, 1424, 1448 ]; format: functional
T1 sequence (Q8TDD5 whole entry): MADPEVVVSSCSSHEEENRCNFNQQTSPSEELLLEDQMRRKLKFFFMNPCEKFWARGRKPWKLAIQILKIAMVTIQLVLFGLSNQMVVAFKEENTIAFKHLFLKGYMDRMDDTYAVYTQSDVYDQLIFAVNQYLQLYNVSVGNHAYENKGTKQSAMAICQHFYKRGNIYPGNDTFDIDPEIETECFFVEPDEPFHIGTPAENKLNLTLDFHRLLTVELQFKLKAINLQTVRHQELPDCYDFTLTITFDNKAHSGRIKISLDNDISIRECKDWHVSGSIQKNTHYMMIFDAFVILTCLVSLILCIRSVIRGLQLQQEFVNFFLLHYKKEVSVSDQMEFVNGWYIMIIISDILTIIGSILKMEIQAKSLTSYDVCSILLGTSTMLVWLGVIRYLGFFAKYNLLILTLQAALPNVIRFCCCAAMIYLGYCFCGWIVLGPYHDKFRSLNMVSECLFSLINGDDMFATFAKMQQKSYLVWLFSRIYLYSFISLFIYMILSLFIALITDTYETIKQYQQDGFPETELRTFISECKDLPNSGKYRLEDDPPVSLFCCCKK

[2] = molecular target: Ion channel NompC (Danio rerio, UniProt Q7T1G6); experiment: Fluorescence counterscreen assay for TRPML3 agonists: dose response cell-based high-throughput screening assay to identify agonists of the transient receptor potential channel N1 (TRPN1). [Related pubchem assays: 1526, 1424, 1448 ]; format: functional
Sequence of Ion channel NompC (Q7T1G6 whole entry): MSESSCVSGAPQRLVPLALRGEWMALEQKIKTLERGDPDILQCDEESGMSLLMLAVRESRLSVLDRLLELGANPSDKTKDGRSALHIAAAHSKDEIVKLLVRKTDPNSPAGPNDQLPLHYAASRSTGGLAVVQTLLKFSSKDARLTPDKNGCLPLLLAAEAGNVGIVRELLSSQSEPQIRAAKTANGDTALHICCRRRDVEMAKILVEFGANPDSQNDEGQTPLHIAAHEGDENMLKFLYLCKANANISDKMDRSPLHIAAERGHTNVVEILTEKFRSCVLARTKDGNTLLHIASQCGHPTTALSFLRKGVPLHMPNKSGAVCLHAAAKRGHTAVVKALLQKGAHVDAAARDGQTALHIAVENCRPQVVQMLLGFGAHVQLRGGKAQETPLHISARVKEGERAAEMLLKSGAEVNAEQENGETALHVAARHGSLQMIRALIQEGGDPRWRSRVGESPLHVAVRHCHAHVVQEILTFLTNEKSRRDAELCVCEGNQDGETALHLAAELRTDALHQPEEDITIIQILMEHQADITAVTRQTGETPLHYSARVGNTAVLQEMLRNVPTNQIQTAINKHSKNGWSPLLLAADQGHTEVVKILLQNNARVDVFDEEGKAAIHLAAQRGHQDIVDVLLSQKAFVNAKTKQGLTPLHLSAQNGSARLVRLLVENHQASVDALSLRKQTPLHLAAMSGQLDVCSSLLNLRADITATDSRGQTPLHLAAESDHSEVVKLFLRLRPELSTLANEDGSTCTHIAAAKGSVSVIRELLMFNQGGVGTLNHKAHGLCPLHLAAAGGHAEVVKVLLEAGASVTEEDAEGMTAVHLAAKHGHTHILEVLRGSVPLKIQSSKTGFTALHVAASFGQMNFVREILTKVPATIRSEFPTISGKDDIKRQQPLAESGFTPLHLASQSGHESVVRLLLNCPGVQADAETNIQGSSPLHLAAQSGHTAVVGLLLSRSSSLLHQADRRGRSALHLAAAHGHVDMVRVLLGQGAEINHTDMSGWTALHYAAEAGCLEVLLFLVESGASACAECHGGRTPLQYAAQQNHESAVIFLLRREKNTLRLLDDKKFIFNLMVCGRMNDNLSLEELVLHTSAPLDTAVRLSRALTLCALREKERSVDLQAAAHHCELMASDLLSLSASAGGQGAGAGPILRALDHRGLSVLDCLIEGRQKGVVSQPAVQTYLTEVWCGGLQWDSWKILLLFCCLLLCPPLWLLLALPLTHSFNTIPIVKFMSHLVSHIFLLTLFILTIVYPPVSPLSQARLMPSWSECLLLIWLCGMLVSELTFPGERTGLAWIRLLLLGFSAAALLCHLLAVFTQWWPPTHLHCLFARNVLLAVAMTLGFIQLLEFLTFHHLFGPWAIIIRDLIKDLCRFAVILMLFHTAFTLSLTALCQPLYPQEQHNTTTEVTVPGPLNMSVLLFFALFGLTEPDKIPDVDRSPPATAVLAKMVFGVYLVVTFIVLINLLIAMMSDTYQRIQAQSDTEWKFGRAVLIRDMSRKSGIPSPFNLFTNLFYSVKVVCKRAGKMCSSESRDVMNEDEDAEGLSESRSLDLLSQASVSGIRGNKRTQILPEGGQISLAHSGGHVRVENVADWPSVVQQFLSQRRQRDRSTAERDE

[3] = test system: Streptococcus sp. 'group A'; experiment: Streptococcus pyogenes SK(-)GAS viability under kanamycin – luminescence, BacTiterGlo, confirmation, counter-screen for streptokinase expression inhibitor project, dose response (AID 1900); format: functional, organism-based
[4] = molecular target: T2, Streptokinase A (Streptococcus pyogenes serotype M1, UniProt P10520); experiment: viability-normalized secreted streptokinase activity reduction – plasminogen activation absorbance, OD405, dose response (AID 1914); format: functional, Streptococcus pyogenes M1 GAS;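 note: secreted streptokinase activity via plasminogen activation per viability signal from cell pellet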
T2 sequence (P10520 whole entry): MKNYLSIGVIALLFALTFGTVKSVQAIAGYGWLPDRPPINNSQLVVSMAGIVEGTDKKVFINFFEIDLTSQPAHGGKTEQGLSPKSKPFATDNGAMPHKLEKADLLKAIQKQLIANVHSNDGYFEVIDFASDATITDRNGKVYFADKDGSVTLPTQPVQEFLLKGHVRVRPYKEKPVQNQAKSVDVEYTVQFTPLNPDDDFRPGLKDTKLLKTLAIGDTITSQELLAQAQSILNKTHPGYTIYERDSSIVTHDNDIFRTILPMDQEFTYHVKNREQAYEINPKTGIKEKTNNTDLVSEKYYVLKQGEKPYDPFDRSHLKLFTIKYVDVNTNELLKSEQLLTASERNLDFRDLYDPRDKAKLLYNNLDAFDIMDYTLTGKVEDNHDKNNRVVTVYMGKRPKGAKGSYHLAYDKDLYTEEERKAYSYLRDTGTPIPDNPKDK

[5] = test system: Streptococcus; experiment: GAS UMAA2166 growth inhibition – luminescence, BacTiterGlo, counter-screen for streptokinase expression inhibitor project, dose response (AID 1915); format: functional, organism-based;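 note: potency for reduction of bacterial viability or growth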
[6] = molecular target: T3, Neuropeptide Y receptor type 1 (Homo sapiens, UniProt P25929); format: functional;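 note: HEK293 cells with a CNG channel challenged with NPY then isoproterenol; potency as antagonist that reverses NPY suppression of cAMP signal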
T3 sequence (P25929 whole entry): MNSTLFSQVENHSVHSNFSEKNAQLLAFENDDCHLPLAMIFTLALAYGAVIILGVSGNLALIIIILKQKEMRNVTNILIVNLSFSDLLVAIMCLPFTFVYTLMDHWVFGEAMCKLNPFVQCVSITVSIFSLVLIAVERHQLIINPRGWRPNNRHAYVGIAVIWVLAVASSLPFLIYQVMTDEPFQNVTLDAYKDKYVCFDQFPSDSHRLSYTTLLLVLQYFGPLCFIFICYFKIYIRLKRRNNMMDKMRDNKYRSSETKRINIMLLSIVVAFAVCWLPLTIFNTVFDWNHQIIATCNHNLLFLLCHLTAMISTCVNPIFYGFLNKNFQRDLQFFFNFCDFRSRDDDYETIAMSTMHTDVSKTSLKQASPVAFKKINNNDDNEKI

[7] = molecular target: T4, Neuropeptide Y receptor type 2 (Homo sapiens, UniProt P49146); format: functional, cell-based;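 note: HEK293 cells expressing the receptor and a CNG channel; stimulus was NPY near EC95 followed by isoproterenol to raise cAMP; antagonist potency measured as restoring cAMP signal that NPY suppresses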
T4 sequence (P49146 whole entry): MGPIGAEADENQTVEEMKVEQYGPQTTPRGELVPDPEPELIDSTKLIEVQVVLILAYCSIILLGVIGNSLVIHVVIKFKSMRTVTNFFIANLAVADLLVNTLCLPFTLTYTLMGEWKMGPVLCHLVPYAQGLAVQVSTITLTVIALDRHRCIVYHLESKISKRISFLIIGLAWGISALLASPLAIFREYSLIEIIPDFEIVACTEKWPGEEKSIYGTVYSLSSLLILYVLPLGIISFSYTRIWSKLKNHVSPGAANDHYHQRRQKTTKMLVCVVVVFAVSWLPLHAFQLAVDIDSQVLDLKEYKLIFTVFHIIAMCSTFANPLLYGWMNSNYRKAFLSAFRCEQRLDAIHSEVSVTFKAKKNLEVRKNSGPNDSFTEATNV

[8] = molecular target: T5, Mannose-6-phosphate isomerase (Homo sapiens, UniProt P34949); experiment: MPI enzyme activity inhibition – biochemical, fluorescence intensity, coupled assay, primary screen (AID 1209)
T5 sequence (P34949 whole entry): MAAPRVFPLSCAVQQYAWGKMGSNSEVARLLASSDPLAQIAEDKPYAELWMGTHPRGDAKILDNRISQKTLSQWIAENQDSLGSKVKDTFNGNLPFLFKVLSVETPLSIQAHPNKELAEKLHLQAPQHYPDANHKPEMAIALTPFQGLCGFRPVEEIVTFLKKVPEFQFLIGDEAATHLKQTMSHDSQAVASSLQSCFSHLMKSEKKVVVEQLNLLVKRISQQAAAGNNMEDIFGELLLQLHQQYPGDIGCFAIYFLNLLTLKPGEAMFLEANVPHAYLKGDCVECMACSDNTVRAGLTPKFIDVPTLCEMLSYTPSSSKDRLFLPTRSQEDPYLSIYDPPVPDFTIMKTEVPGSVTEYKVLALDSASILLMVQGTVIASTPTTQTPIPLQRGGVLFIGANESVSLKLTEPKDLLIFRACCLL

[9] = molecular target: T5, Mannose-6-phosphate isomerase; experiment: MPI inhibition at elevated mannose 6-phosphate – biochemical, fluorescence intensity, high mannose 6-phosphate, primary screen (AID 1220)
[10] = molecular target: T6, Replicative DNA helicase DnaB (Mycobacterium tuberculosis, UniProt P9WMR3); experiment: DnaB intein splicing inhibitors, dose response, biochemical, cell-free fluorescence (AID 449749); format: functional
T6 sequence (P9WMR3 whole entry): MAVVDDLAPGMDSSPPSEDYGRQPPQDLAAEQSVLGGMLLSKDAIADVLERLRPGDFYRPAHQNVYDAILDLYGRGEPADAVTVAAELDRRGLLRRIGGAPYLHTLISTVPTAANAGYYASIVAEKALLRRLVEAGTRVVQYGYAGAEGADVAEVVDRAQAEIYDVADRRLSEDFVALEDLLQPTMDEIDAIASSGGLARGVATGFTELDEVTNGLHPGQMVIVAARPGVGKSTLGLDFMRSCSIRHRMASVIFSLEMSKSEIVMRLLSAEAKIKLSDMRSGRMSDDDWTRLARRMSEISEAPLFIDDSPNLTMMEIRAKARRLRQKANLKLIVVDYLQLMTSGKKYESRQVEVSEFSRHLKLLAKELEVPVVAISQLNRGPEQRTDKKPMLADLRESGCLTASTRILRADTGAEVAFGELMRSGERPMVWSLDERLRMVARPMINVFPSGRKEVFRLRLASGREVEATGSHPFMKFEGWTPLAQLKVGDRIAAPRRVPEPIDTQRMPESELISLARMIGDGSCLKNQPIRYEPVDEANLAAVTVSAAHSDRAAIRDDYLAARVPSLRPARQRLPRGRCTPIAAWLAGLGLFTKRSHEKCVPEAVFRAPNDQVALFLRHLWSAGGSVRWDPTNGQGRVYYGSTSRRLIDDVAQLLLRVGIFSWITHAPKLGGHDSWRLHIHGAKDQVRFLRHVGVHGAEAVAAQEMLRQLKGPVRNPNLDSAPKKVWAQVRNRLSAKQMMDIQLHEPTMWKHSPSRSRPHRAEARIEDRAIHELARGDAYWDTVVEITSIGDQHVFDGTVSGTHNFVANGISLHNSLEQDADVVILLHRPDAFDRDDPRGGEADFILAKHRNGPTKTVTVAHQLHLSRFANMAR

[11] = test system: Vero; experiment: viability of Vero cells under compound – cytotoxicity control for flavivirus capping enzyme inhibitors (AID 588742); format: functional; conditions: Chlorocebus sabaeus
[12] = molecular target: T7, Protein RecA (Mycobacterium tuberculosis, UniProt P9WHJ3); experiment: Fluorescence Cell-Free Homogeneous Dose Retest to Identify Inhibitors of RecA-Intein Splicing Activity. [Related pubchem assays (depositor defined):AID2097, AID2223, AID489010, AID492950]; format: functional
T7 sequence (P9WHJ3 whole entry): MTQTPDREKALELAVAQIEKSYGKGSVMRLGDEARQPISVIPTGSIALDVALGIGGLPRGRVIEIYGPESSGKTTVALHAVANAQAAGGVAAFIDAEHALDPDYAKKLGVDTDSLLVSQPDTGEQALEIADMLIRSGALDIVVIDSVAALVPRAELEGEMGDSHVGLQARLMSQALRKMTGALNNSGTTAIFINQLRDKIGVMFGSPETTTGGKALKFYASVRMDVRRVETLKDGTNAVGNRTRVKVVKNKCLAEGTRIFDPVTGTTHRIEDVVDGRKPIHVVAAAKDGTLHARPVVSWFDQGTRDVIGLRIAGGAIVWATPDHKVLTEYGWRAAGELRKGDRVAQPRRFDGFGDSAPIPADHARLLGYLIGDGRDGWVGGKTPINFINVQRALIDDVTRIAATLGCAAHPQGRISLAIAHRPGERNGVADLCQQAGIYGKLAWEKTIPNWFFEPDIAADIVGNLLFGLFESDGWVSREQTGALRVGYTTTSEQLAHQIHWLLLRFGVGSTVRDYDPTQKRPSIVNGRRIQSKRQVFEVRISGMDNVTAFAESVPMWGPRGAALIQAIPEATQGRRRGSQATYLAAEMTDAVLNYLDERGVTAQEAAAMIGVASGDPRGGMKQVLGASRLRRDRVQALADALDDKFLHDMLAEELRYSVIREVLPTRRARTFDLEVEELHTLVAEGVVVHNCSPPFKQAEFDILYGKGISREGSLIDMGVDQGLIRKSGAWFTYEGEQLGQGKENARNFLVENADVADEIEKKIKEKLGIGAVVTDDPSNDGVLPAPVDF

[13] = molecular target: T8, Polyadenylate-binding protein 1 (Homo sapiens, UniProt P11940); experiment: MLLE binding blockers, Cy5 peptide tracer – biochemical, fluorescence polarization, Cy5-PAM2 peptide, secondary, miRNA deadenylation inhibitor project, dose response (AID 602260); format: functional; conditions: read-out: IC50_Mean
T8 sequence (P11940 whole entry, the tested form may be a part): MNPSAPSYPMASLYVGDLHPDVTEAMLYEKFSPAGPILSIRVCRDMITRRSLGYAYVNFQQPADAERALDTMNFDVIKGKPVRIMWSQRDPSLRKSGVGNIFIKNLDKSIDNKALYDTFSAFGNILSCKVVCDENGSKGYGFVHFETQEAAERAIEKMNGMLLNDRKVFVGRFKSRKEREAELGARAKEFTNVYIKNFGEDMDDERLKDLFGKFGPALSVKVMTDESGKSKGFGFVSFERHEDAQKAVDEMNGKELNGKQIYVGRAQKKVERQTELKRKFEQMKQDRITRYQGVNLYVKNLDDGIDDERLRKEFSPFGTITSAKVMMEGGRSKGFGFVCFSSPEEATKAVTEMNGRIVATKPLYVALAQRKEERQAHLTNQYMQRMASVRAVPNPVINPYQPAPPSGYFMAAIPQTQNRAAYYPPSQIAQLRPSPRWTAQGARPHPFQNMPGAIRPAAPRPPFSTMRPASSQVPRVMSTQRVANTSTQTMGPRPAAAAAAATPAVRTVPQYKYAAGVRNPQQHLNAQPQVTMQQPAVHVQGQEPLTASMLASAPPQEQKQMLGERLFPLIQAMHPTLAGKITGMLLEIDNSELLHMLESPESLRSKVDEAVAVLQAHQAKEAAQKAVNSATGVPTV

[14] = molecular target: T8, Polyadenylate-binding protein 1; experiment: MLLE domain peptide-binding blockers, IC50 – biochemical, fluorescence polarization, FITC-PAM2 peptide, dose response (AID 602259); format: functional; conditions: read-out: IC50_Mean
[15] = molecular target: NS3 (Hepatitis C virus, UniProt A3EZJ3); experiment: PubChem AID 2173; parameters: species or system Hepacivirus hominis
Sequence of NS3 (A3EZJ3 whole entry): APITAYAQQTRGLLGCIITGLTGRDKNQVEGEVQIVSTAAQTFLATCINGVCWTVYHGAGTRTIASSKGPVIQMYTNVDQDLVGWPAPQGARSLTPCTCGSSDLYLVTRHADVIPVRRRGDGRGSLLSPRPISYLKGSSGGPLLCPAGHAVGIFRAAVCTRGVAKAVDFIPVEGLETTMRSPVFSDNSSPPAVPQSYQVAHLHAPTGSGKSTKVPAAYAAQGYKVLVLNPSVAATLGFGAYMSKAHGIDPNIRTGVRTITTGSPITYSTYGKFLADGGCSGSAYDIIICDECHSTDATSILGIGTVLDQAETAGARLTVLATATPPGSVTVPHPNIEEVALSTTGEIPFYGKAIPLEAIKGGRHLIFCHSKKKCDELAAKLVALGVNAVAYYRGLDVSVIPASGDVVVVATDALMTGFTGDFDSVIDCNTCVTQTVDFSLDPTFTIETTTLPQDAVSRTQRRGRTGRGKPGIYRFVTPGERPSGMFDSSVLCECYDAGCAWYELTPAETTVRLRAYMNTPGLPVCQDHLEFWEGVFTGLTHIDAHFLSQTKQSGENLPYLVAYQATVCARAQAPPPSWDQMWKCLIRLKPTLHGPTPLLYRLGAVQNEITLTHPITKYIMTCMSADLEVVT

Compound: COc1ccccc1C1CN=NC12CCCc1ccccc1C2=O (centres undefined)
- EC50 [1]: 1.83 µM (active)
- EC50 [2]: > 29.9 µM (not active)

Compound: Cc1cc(C)n(-c2nc(C)nc(NCc3ccccc3)n2)n1
- EC50 [3]: 42.4 µM (active)
- EC50 [4]: > 150 µM (not active)
- EC50 [1]: > 29.9 µM (not active)
- EC50 [2]: > 29.9 µM (not active)
- EC50 [5]: > 150 µM (not active)

Compound: c1ccc(COc2ccc(OCCCCN3CCCCC3)cc2)cc1
- IC50 [6]: 9.46 µM (active)
- IC50 [7]: > 35 µM (not active)

Compound: Cc1nc2ccc(F)cc2cc1C(=O)Nc1ccc(Cl)c(Cl)c1
- IC50 [6]: 8.84 µM (active)
- IC50 [7]: 8.88 µM (active)

Compound: CCOC(=O)c1c(C)oc2c1c(/C=N/CCO)c(O)c1ccccc12
- IC50 [8]: 5.36 µM (active)
- IC50 [9]: 4.48 µM (active)
- AC50 [10]: > 380 µM (inactive)
- CC50 [11]: 32.9 µM (active)
- EC50 [12]: 0.618 µM (active)
- IC50 [13]: > 66 µM (inactive)
- IC50 [14]: > 66 µM (inactive)

Compound: COc1ccc2[nH]c3c(=O)n(CCCC(=O)NC4CCCCC4C)c(=S)[nH]c3c2c1 (centres undefined)
- IC50 [15]: 45.7 µM (not active)

Reference: ChEMBL document CHEMBL1201862, “PubChem BioAssay data set” (2004)
